Assay [1] has as its target T1, GDP loaded biotinylated KRas^G12C protein (Homo sapiens, UniProt P01116, G12C).
T1 construct: biotin (biotinylated); made in house
The experiment in a line: KRasG12C mass spectrometry adducting assay. It is filed as binding. Particulars: test compound final concentration 10 μM, 4 μM KRasG12C, react for 4 hours. The method, boiled down:
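Covalent modification quantified as percent adduct: adduct peak area over summed apo plus adduct areas, from MaxEnt1-deconvoluted intact-protein LC–MS spectra. Protein was GDP-bound biotinylated KRasG12C in HEPES pH 7.5 buffer with 5 mM MgCl2 and 150 mM NaCl.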

Assay [2] has as its target T1, GDP loaded biotinylated KRas^G12C protein. The experiment in a line: KRasG12C functional assay. It is filed as biochemical. Particulars: HTRF FRET readout of SOS-mediated nucleotide exchange and GST-Raf RBD binding, samples incubated for 4 hrs. The method, boiled down: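 Biotinylated GDP-loaded KRasG12C exchange driven by 0.08 μM SOS with 0.6 μM GTPγS, read by HTRF between europium and XL665 as active KRas binds 20 nM GST-Raf RBD. Buffer: 20 mM HEPES pH 7.5, 5 mM MgCl2, 150 mM NaCl, 0.01% Tween 20. IC50 from normalised FRET dose-response fits.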
A general note: Time-resolved FRET reads energy transfer from a long-lived donor to a nearby acceptor.

[3] abbreviates: read-out: KRasG12C functional assay IC50 value.

Each structure is given as a SMILES string. Like-named read-outs stand apart in the source and are kept apart here.

T1 sequence (P01116 1-188 isoform P01116-2 G12C): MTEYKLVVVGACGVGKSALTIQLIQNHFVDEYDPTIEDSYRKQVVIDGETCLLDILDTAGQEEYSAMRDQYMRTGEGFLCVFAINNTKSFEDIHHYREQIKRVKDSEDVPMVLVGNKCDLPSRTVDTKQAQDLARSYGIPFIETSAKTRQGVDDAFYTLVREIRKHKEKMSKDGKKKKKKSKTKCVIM

One may read the IC50 as the concentration needed to halve the response being measured. Take `C=CC(=O)N1CCN2c3ncnc4cc(-c5cccc(N=S(C)(C)=O)c5)c(Cl)c(c34)OC[C@@H]2C1` [Example 36, 1-[(8aS)-6-Chloro-5-(3-{[dimethyl(oxido)-lambda~6~- sulfanylidene]amino}phenyl)-8a,9,11,12-tetrahydropyrazino[2′,1′:3,4][1,4]oxazepino[5,6,7-de]quinazolin-10(8H)-yl]prop-2-en-1-one]: the “KRasG12C M.S. Binding Mean adduct %” value in assay [1] was determined as 21%. Also, the concentration for half-maximal inhibition (IC50) in assay [2] (setting [3]) stood at 6.38 µM.

Take `C=CC(=O)N1CCN2c3ncnc4cc(-c5cccc6c(C)n(C)nc56)c(Cl)c(c34)OC[C@@H]2C1` [Example 37, 1-[(8aS)-6-Chloro-5-(2,3-dimethyl-2H-indazol-7-yl)-8a,9,11,12-tetrahydropyrazino[2′,1′:3,4][1,4]oxazepino[5,6,7-de]quinazolin-10(8H)-yl]prop-2-en-1-one]: the “KRasG12C M.S. Binding Mean adduct %” value in assay [1] is 49%. Moreover, in assay [2] (setting [3]), the IC50 amounted to 2.73 µM.

On to `C=CC(=O)N1CCN2c3ncnc4cc(-c5cc(CO)ccc5F)c(Cl)c(c34)OC[C@@H]2C1` [Example 38, 1-[(8aS)-6-Chloro-5-[2-fluoro-5-(hydroxymethyl)phenyl]-8a,9,11,12-tetrahydropyrazino[2′,1′:3,4][1,4]oxazepino[5,6,7-de]quinazolin-10(8H)-yl]prop-2-en-1-one], for which the “KRasG12C M.S. Binding Mean adduct %” value in assay [1] worked out at 82%. Moreover, the half-inhibitory concentration (IC50) in assay [2] (setting [3]) is 1.28 µM.

For the molecule `C=CC(=O)N1CCN2c3ncnc4cc(-c5cccc6cnn(C)c56)c(Cl)c(c34)OC[C@@H]2C1` [Example 39, 1-[(8aS)-6-Chloro-5-(1-methyl-1H-indazol-7-yl)-8a,9,11,12-tetrahydropyrazino[2′,1′:3,4][1,4]oxazepino[5,6,7-de]quinazolin-10(8H)-yl]prop-2-en-1-one], in assay [1], the “KRasG12C M.S. Binding Mean adduct %” value was 79%. The half-inhibitory concentration (IC50) in assay [2] (setting [3]) came out at 0.803 µM.

In the case of `C=CC(=O)N1CCN2c3ncnc4cc(-c5cc(F)ccc5F)c(Cl)c(c34)OC[C@@H]2C1` [Example 40, 1-[(8aS)-6-Chloro-5-(2,5-difluorophenyl)-8a,9,11,12-tetrahydropyrazino[2′,1′:3,4][1,4]oxazepino[5,6,7-de]quinazolin-10(8H)-yl]prop-2-en-1-one], the “KRasG12C M.S. Binding Mean adduct %” value in assay [1] was 67%. The 50% inhibitory concentration (IC50) in assay [2] (setting [3]) came out at 0.955 µM.

With `C=CC(=O)N1CCN2c3ncnc4cc(-c5ccccc5C)c(Cl)c(c34)OC[C@@H]2C1` [Example 41, 1-[(8aS)-6-Chloro-5-(2-methylphenyl)-8a,9,11,12-tetrahydropyrazino[2′,1′:3,4][1,4]oxazepino[5,6,7-de]quinazolin-10(8H)-yl]prop-2-en-1-one], the “KRasG12C M.S. Binding Mean adduct %” value in assay [1] is on record as 100%. Besides, the IC50 in assay [2] (setting [3]) amounted to 0.479 µM.

On to `C=CC(=O)N1CCN2c3ncnc4cc(-c5ccccc5Cl)c(Cl)c(c34)OC[C@@H]2C1` [Example 42, 1-[(8aS)-6-Chloro-5-(2-chlorophenyl)-8a,9,11,12-tetrahydropyrazino[2′,1′:3,4][1,4]oxazepino[5,6,7-de]quinazolin-10(8H)-yl]prop-2-en-1-one], for which the “KRasG12C M.S. Binding Mean adduct %” value in assay [1] came out at 100%. The half-maximal inhibitory concentration (IC50) in assay [2] (setting [3]) is 0.247 µM.

For `C=CC(=O)N1CCN2c3ncnc4cc(-c5cccc6c5COCCO6)c(Cl)c(c34)OC[C@@H]2C1` [Example 43, 1-[(8aS)-6-Chloro-5-(2,3-dihydro-5H-1,4-benzodioxepin-6-yl)-8a,9,11,12-tetrahydropyrazino[2′,1′:3,4][1,4]oxazepino[5,6,7-de]quinazolin-10(8H)-yl]prop-2-en-1-one], the “KRasG12C M.S. Binding Mean adduct %” value in assay [1] was determined as 56%. Also, in assay [2] (setting [3]), the 50% inhibitory concentration (IC50) stood at 1.49 µM.

For `C=CC(=O)N1CCN2c3ncnc4cc(-c5cccc6ccc(=O)n(C)c56)c(Cl)c(c34)OC[C@@H]2C1` [Example 44, 8-[(8aS)-10-Acryloyl-6-chloro-8,8a,9,10,11,12-hexahydropyrazino[2′,1′:3,4][1,4]oxazepino[5,6,7-de]quinazolin-5-yl]-1-methylquinolin-2(1H)-one], the “KRasG12C M.S. Binding Mean adduct %” value in assay [1] was found to be 51%. In addition, in assay [2] (setting [3]), the concentration for half-maximal inhibition (IC50) amounted to 3.62 µM.

On to `C=CC(=O)N1CCN2c3ncnc4cc(-c5cccc6c5ncn6C)c(Cl)c(c34)OC[C@@H]2C1` [Example 45, 1-[(8aS)-6-Chloro-5-(1-methyl-1H-benzimidazol-4-yl)-8a,9,11,12-tetrahydropyrazino[2′,1′:3,4][1,4]oxazepino[5,6,7-de]quinazolin-10(8H)-yl]prop-2-en-1-one], for which the “KRasG12C M.S. Binding Mean adduct %” value in assay [1] came out at 72%. The IC50 in assay [2] (setting [3]) came out at 1.58 µM.

As to `C=CC(=O)N1CCN2c3ncnc4cc(-c5cn(C)c6ccccc56)c(Cl)c(c34)OC[C@@H]2C1` [Example 46, 1-[(8aS)-6-Chloro-5-(1-methyl-1H-indol-3-yl)-8a,9,11,12-tetrahydropyrazino[2′,1′:3,4][1,4]oxazepino[5,6,7-de]quinazolin-10(8H)-yl]prop-2-en-1-one], the “KRasG12C M.S. Binding Mean adduct %” value in assay [1] was 65%. For the same molecule, in assay [2] (setting [3]), the IC50 stood at 1.51 µM.

`C=CC(=O)N1CCN2c3ncnc4cc(-c5cccc6oc(=O)n(C)c56)c(Cl)c(c34)OC[C@@H]2C1` [Example 47, 4-[(8aS)-10-Acryloyl-6-chloro-8,8a,9,10,11,12-hexahydropyrazino[2′,1′:3,4][1,4]oxazepino[5,6,7-de]quinazolin-5-yl]-3-methyl-1,3-benzoxazol-2(3H)-one]: the “KRasG12C M.S. Binding Mean adduct %” value in assay [1] came to 9%. Moreover, the half-maximal inhibitory concentration (IC50) in assay [2] (setting [3]) turned out to be 9.82 µM.

As for `C=CC(=O)N1CCN2c3ncnc4cc(-c5cc(Cl)ccc5OC)c(Cl)c(c34)OC[C@@H]2C1` [Example 48, 1-[(8aS)-6-Chloro-5-(5-chloro-2-methoxyphenyl)-8a,9,11,12-tetrahydropyrazino[2′,1′:3,4][1,4]oxazepino[5,6,7-de]quinazolin-10(8H)-yl]prop-2-en-1-one], the “KRasG12C M.S. Binding Mean adduct %” value in assay [1] is 68%. Moreover, the IC50 in assay [2] (setting [3]) was 6.31 µM.

Regarding `C=CC(=O)N1CCN2c3ncnc4cc(-c5ccccc5CC(N)=O)c(Cl)c(c34)OC[C@@H]2C1` [Example 49, 2-{2-[(8aS)-10-Acryloyl-6-chloro-8,8a,9,10,11,12-hexahydropyrazino[2′,1′:3,4][1,4]oxazepino[5,6,7-de]quinazolin-5-yl]phenyl}acetamide], in assay [1], the “KRasG12C M.S. Binding Mean adduct %” value was 28%. Also, the concentration for half-maximal inhibition (IC50) in assay [2] (setting [3]) turned out to be 7.53 µM.

`C=CC(=O)N1CCN2c3ncnc4cc(-c5ccc(F)cc5Cl)c(Cl)c(c34)OC[C@@H]2C1` [Example 50, 1-[(8aS)-6-Chloro-5-(2-chloro-4-fluorophenyl)-8a,9,11,12-tetrahydropyrazino[2′,1′:3,4][1,4]oxazepino[5,6,7-de]quinazolin-10(8H)-yl]prop-2-en-1-one]: the “KRasG12C M.S. Binding Mean adduct %” value in assay [1] came to 100%. For the same molecule, the IC50 in assay [2] (setting [3]) was 0.956 µM.

Take `C=CC(=O)N1CCN2c3ncnc4cc(-c5cc(F)ccc5OC)c(Cl)c(c34)OC[C@@H]2C1` [Example 51, 1-[(8aS)-6-Chloro-5-(5-fluoro-2-methoxyphenyl)-8a,9,11,12-tetrahydropyrazino[2′,1′:3,4][1,4]oxazepino[5,6,7-de]quinazolin-10(8H)-yl]prop-2-en-1-one]: in assay [1], the “KRasG12C M.S. Binding Mean adduct %” value was determined as 57%. Moreover, the IC50 in assay [2] (setting [3]) amounted to 5.09 µM.

As to `C=CC(=O)N1CCN2c3ncnc4cc(-c5ccc(O)cc5)c(Cl)c(c34)OC[C@@H]2C1` [Example 52, 1-[(8aS)-6-Chloro-5-(4-hydroxyphenyl)-8a,9,11,12-tetrahydropyrazino[2′,1′:3,4][1,4]oxazepino[5,6,7-de]quinazolin-10(8H)-yl]prop-2-en-1-one], the “KRasG12C M.S. Binding Mean adduct %” value in assay [1] is listed as 17%. In assay [2] (setting [3]), the half-maximal inhibitory concentration (IC50) was found to be 5.36 µM.

Turning to `C=CC(=O)N1CCN2c3ncnc4cc(-c5cccc6[nH]ccc56)c(Cl)c(c34)OC[C@@H]2C1` [Example 53, 1-[(8aS)-6-Chloro-5-(1H-indol-4-yl)-8a,9,11,12-tetrahydropyrazino[2′,1′:3,4][1,4]oxazepino[5,6,7-de]quinazolin-10(8H)-yl]prop-2-en-1-one], in assay [1], the “KRasG12C M.S. Binding Mean adduct %” value worked out at 74%. In assay [2] (KRasG12C functional assay IC50 value (μM)), this molecule registered an IC50 of 1.69 µM.

For `C=CC(=O)N1CCN2c3ncnc4cc(-c5ccc(N)cc5C)c(Cl)c(c34)OC[C@@H]2C1` [Example 54, 1-[(8aS)-5-(4-Amino-2-methylphenyl)-6-chloro-8a,9,11,12-tetrahydropyrazino[2′,1′:3,4][1,4]oxazepino[5,6,7-de]quinazolin-10(8H)-yl]prop-2-en-1-one], the “KRasG12C M.S. Binding Mean adduct %” value in assay [1] was found to be 60%. For the same molecule, the IC50 in assay [2] (setting [3]) is 2.57 µM.

Take `C=CC(=O)N1CCN2c3ncnc4cc(-c5cnccc5C)c(Cl)c(c34)OC[C@@H]2C1` [Example 55, 1-[(8aS)-6-Chloro-5-(4-methylpyridin-3-yl)-8a,9,11,12-tetrahydropyrazino[2′,1′:3,4][1,4]oxazepino[5,6,7-de]quinazolin-10(8H)-yl]prop-2-en-1-one]: the “KRasG12C M.S. Binding Mean adduct %” value in assay [1] is given as 26%. Further, in assay [2] (setting [3]), the IC50 turned out to be 4.03 µM.

Regarding `C=CC(=O)N1CCN2c3ncnc4cc(-c5ccc(O)c(C#N)c5)c(Cl)c(c34)OC[C@@H]2C1` [Example 56, 5-[(8aS)-10-Acryloyl-6-chloro-8,8a,9,10,11,12-hexahydropyrazino[2′,1′:3,4][1,4]oxazepino[5,6,7-de]quinazolin-5-yl]-2-hydroxybenzonitrile], the “KRasG12C M.S. Binding Mean adduct %” value in assay [1] came to 0%. In assay [2] (setting [3]), the IC50 was 4.39 µM.

Turning to `C=CC(=O)N1CCN2c3ncnc4cc(-c5cccc6ocnc56)c(Cl)c(c34)OC[C@@H]2C1` [Example 57, 1-[(8aS)-5-(1,3-Benzoxazol-4-yl)-6-chloro-8a,9,11,12-tetrahydropyrazino[2′,1′:3,4][1,4]oxazepino[5,6,7-de]quinazolin-10(8H)-yl]prop-2-en-1-one], the “KRasG12C M.S. Binding Mean adduct %” value in assay [1] was determined as 68%. Also, the half-inhibitory concentration (IC50) in assay [2] (setting [3]) is 2.42 µM.

The record behind these values is patent publication US20220127281A1, “HETEROARYL COMPOUNDS THAT INHIBIT G12C MUTANT RAS PROTEINS” (AstraZeneca AB, priority 2017, published 2022).
